This is an account of results in PMC10740580, “Benzothiazole-Phthalimide Hybrids as Anti-Breast Cancer and Antimicrobial Agents” (Antibiotics, 2023).

Assay [1] deals with Staphylococcus aureus 25923. Put plainly: Broth microdilution, S. aureus ATCC 25923. As to conditions: Staphylococcus aureus, 25923, 24 h, 37 °C. The format is cell-based. From the text: (§1) Compounds 3a–h were examined in accordance with the Clinical Laboratory Standards Institute (CLSI) recommendations, by means of the broth microdilution method, against gram-positive bacteria (Staphylococcus aureus 25923, Staphylococcus aureus 29213, Staphylococcus aureus 43300, Enterococcus faecalis 29212) and gram-negative bacteria (Escherichia coli 25922, Klebsiella pneumoniae 13883, Pseudomonas aeruginosa 27853) belonging to the ATCC collection, using levofloxacin as a reference drug. Table 3 lists the results, expressed as MIC (µg/mL). […] The lack of activity observed for compound 3d could be conceivably due to its poor solubility in the culture medium containing the inoculum.
(§2) Following the recommendations of the CLSI (Clinical and Laboratory Standards Institute, 2012), the broth microdilution method was used to determine the in vitro minimum inhibitory concentrations (MICs, µg/mL).. The concentration of the investigated compounds was set to its highest value to create stock solutions. Then, the stock solutions were diluted 1:10 with Cation-Adjusted Mueller Hinton Broth (Oxoid, Milan, Italy). After that, a series of concentrations from 512 µg/mL to […] were obtained in the wells by performing two-fold serial dilutions in the appropriate test medium. The diluent used to create the stock solution was 100% DMSO. We used the following bacterial strains from the ATCC collection that were available as freeze-dried discs: gram-positive strains such as S. aureus ATCC 25923, 29213, and 43300, and E. faecalis ATCC 29212, and gram-negative ones such as E. coli ATCC 25922, K. pneuomoniae ATCC 13883, and P. aeruginosa ATCC 27853. To preserve the purity of cultures and to allow their reproducibility, cryovials of all microbial strains were set up in the medium and stored at −80 °C. Mueller Hinton Broth (MHB) was used to prepare pre-cultures of each bacterial strain, which were then incubated for 3–5 h at 37 °C. In accordance with CLSI procedure M7-A9, the turbidity of the bacterial cell suspension was calibrated to 0.5 McFarland Standard using a spectrophotometric approach (OD625 nm 0.08–0.10). The standardized suspension was then further diluted (1:100) with MHB to reach 1–2 × 10^6 CFU/mL. A 200 µL aliquot of the final inoculum was inserted into each well. As a control for growth, several wells containing only inoculated broth were prepared. The plates were incubated at 37 °C for 24 h, and the MIC values were calculated as the lowest concentration of compounds at which there was no optically detectable bacteria growth. Each experiment was carried out in duplicate and repeated twice to determine the MICs. Levofloxacin served as the study’s standard reference antibiotic. Additionally, the antibacterial activity of DMSO alone (used as a diluent for the investigated compounds) was examined; therefore, volumes of this solvent with a concentration of less than 5% were utilized throughout the experimentation.

A further assay has as its system Escherichia coli 25922. Nature of the assay: Broth microdilution, E. coli ATCC 25922. The class given is cell-based. Conditions: 24 h, 37 °C.
Excerpt: as §1, §2

Assay [2] relates to Klebsiella pneumoniae 13883. Put plainly: Broth microdilution, K. pneumoniae ATCC 13883. As to conditions: 24 h, 37 °C, read-out: MIC K.p. 13883. The class given is cell-based.
Excerpt: as §1, §2
(Dilution methods test growth across graded concentrations, often in twofold steps.)

The subject of assay [3] is Pseudomonas aeruginosa 27853. Nature of the assay: Broth microdilution, P. aeruginosa ATCC 27853. The format is cell-based. Conditions: 24 h, 37 °C.
Excerpt: as §1, §2

For assay [4], the system named is Enterococcus faecalis 29212. Put plainly: Broth microdilution, E. faecalis ATCC 29212. As to conditions: 24 h, 37 °C, read-out: MIC E.f. 29212. The class given is cell-based.
Excerpt: as §1, §2

The test system of assay [5] is Acinetobacter baumanii 19606. Nature of the assay: Broth microdilution, A. baumanii 19606. The format is cell-based. Conditions: Acinetobacter baumannii, 24 h, 37 °C, read-out: MIC A.b. 19606.
In assay [6] the test system is Staphylococcus aureus 43300. Nature of the assay: Broth microdilution, S. aureus ATCC 43300. The format is cell-based. As to conditions: 24 h, 37 °C, methicillin-resistant.
Excerpt: as §1, §2

The test system of assay [7] is Staphylococcus aureus 29213. Put plainly: Broth microdilution, S. aureus ATCC 29213. The class given is cell-based. Conditions: 24 h, 37 °C.
Excerpt: as §1, §2

For a further assay, the system named is Candida albicans 10231. Nature of the assay: Antifungal microdilution, C. albicans ATCC 10231. The class given is cell-based. Conditions: microdilution CLSI M27-A3, 48 h, 37 °C. The procedure:
(§3) In accordance with CLSI guidelines, compounds 3a–h were tested against a variety of fungal strains (Candida albicans 10231, Candida albicans 90028, Candida glabrata 15126, and Candida parapsilosis 22019) belonging to the ATCC collection. Amphotericin B was utilized as a reference drug. A similar trend of results, or even better than that obtained against bacteria, was assessed against fungal strains. […] Also, in this case, compound 3h emerged as the best of the series, with MICs of 16 μg/mL against Candida glabrata and Candida parapsilosis strains and 32 μg/mL against Candida albicans strains.
(§4) A microdilution technique described by the Clinical and Laboratory Standards Institute (CLSI, M27-A3) was used to assess the antifungal activity. The following fungal strains, belonging to the ATCC collection and available as freeze-dried discs, were used: C. albicans ATCC 10231, C. albicans ATCC 90028, C. glabrata ATCC 15126, and C. parapsilosis ATCC 22019. Stock solutions were prepared and preserved with purity as previously described for the antibacterial studies. Each yeast strain’s pre-cultures were made in Sabouraud broth (SAB) and allowed to grow until they stopped at 37 °C. By using a spectrophotometric technique (530 nm, range 0.12–0.15), the turbidity of the yeast stock suspension was calibrated to 0.5 McFarland Standard. Next, the standardized suspension was diluted first at 1:50 with SAB and then at 1:20 in the same medium to have […]. A total of 100 µL of inoculum was seeded into each well. As a control for growth, several wells containing only inoculated broth were prepared. The plates were incubated for 48 h at 37 °C, and the MIC values were calculated as the final well with no fungal growth. […] MIC values were observed based on the absence of fungal growth in the final well. The MICs were calculated by conducting the antifungal test three times in duplicate. As a control, amphotericin B was used.

The test system of another assay is Candida albicans 90028. Put plainly: Antifungal microdilution, C. albicans ATCC 90028. The format is cell-based. Conditions: microdilution CLSI M27-A3, 48 h, 37 °C. On the procedure: as §3, §4
Assay [8] deals with Candida parapsilosis 22019. Put plainly: Antifungal microdilution, C. parapsilosis ATCC 22019. As to conditions: microdilution CLSI M27-A3, 48 h, 37 °C, read-out: MIC C.p. 22019. The format is cell-based. On the procedure: as §3, §4
The next assay relates to Candida glabrata 15126. Nature of the assay: Antifungal microdilution, C. glabrata ATCC 15126. The class given is cell-based. Conditions: Nakaseomyces glabratus, microdilution CLSI M27-A3, 48 h, 37 °C, read-out: MIC C.g. 15126. On the procedure: as §3, §4
The next assay relates to MCF-7 cells. Put plainly: MTT cell viability assay, MCF-7. Conditions: Homo sapiens, MCF7, 72 h exposure, mean ± SD. The format is cell-based, human. The procedure:
(§5) The anticancer activity of the studied compounds (3a–h) was explored with regards to two human breast cancer cell lines, namely the estrogen receptor positive (ER+) MCF-7 cells and the triple negative MDA-MB-231 cells (ER-, PR-, and HER-2/Neu-). Cells were continuously exposed to the test substances for 72 h, after which their viability was assessed by means of the MTT assay. Table 2 lists the determined IC50 values for the investigated substances and the reference drug, thalidomide. […] Additionally, the same test for all the compounds has been performed on nonmalignant breast epithelial cells (MCF-10A) to ascertain their potential cytotoxicity.
(§6) The four cell lines used in this work (MCF-7, MDA-MB-231, MCF-10A, and 3T3-L1) were obtained from the American Type Culture Collection (ATCC, Manassas, VA, USA). All cell lines were maintained at 37 °C in a humidified atmosphere of 95% air and 5% CO2 and periodically screened for contamination. MCF-7, human breast cancer cells estrogen receptor (ER)-positive, and human breast cancer triple negative MDA-MB231 were grown in DMEM-F12 medium containing 2 mmol/L L-glutamine, 1 mg/mL penicillin–streptomycin, and 5% newborn calf serum (NCS) or 5% fetal bovine serum (FBS), respectively. MCF-10A human mammary epithelial cells were cultured in DMEM/F12 medium, supplemented with 5% horse serum (HS) (Eurobio, Les Ullis, Cedex, France), 100 U/mL penicillin/streptomycin, […], 20 ng/mL hEGF (human epidermal growth factor), […], and […] (Sigma-Aldrich, Milano, Italy). BALB/3T3 murine fibroblast cells were cultured in DMEM high glucose supplemented with 10% bovine calf serum (BCS), 1% L-glutamine, and 100 U/mL penicillin/streptomycin.
(§7) Cell viability was evaluated by means of the 3-(4,5-dimethylthiazol-2-y1)-2,5-diphenyltetra zolium bromide (MTT, Sigma-Aldrich, Milan, Italy) assay. On 48-well plates, cells were seeded, and they were cultured in complete medium. Before being treated, cells were starved in serum-free medium for 24 h to allow cell cycle synchronization. Subsequently, cells were exposed to increasing doses of each compound for 72 h in phenol-red-free media supplemented with 1% serum before fresh MTT was added to each well (final concentration: 0.5 mg/mL). Cells were lysed with DMSO after 2 h of incubation at 37 °C, and optical density at 570 nm was then determined with a microplate reader. Using GraphPad Prism 9 software (GraphPad Inc., San Diego, CA, USA), the mean absorbance for each sample was expressed as a percentage over the control and plotted vs. drug concentrations to establish the IC50 values. The given standard deviations (SDs) are indicative of three separate tests carried out in triplicate.

Assay [9] has as its system MDA-MB-231 cells. Put plainly: TUNEL assay (DNA damage). The format is cell-based, human. Conditions: 50 μM, 24 h. The procedure: To further assess the effect of 3h treatment in MDA-MB-231, the terminal deoxynucleotidyl transferase dUTP nick-end labeling (TUNEL) assay was used. Thus, 3h or Thalidomide, as reference drug, were administered to the cells, for 24 h, at 25 and 50 μM concentrations, respectively, or with only the vehicle (DMSO), as negative control and then processed as outlined in the experimental section. […] Nuclei were counterstained with blue DAPI (Figure 2, panels A), and merge channels were also shown (Figure 2, panels C), where it is evident the perfect superposition of green and blue signals. […] Images taken from bright fields were also included (Figure 2, panels D).
DNA damage and cell death were analyzed by means of the TUNEL assay as indicated by the manufacturer’s protocols (CF™488A TUNEL Assay Apoptosis Detection Kit, Biotium, Hayward, CA, USA), with few changes, as in [42]. DAPI staining (0.2 μg/mL, Sigma Aldrich, Milan, Italy) was adopted for cell nuclei. Observations were made at 20× magnification using a fluorescence microscope (Leica DM 6000, Leica Microsystem Srl, Buccinasco, Italy). LAS-X software (Version: 3.5.7.23225; Leica Microsystem Srl, Buccinasco, Italy) was employed for the acquisition and processing of the images. Images are representative of two separate experiments from which different fields were acquired.
Figure 2 TUNEL assay. […]

For a further assay, the system named is MCF-10A cells. Put plainly: MTT cell viability assay, nonmalignant MCF-10A. Conditions: Homo sapiens, 72 h exposure, nonmalignant breast epithelial cells, mean ± SD, read-out: IC50 MCF10-A. The class given is cell-based. The procedure:
as §5, §6, §7
On the technique in general: Tetrazolium dyes change colour on reduction, which living cells bring about.

In assay [10] the test system is MDA-MB-231 cells. Nature of the assay: MTT cell viability assay, MDA-MB-231. The class given is cell-based, human. As to conditions: Homo sapiens, MDA-MB-231, 72 h exposure, mean ± SD. On the procedure:
as §5, §6, §7

≈ marks a conversion by molar mass, not a printed value.

In the case of `C[C@H]1COc2c(N3CCN(C)CC3)c(F)cc3c(=O)c(C(=O)O)cn1c23` [levofloxacin, reference compound], the MIC was 0.5 µg/mL (≈ 1.38 µM) in assay [1]; 0.06 µg/mL (≈ 0.166 µM) in the assay on Escherichia coli 25922; 8 µg/mL (≈ 22.1 µM) in [2]; 4 µg/mL (≈ 11.1 µM) in assay [3]; 2 µg/mL (≈ 5.53 µM) in assay [4]; 8 µg/mL (≈ 22.1 µM) in assay [5]. Further, the minimal inhibitory concentration (MIC) in assay [6] and in assay [7] was 0.5 µg/mL (≈ 1.38 µM) in each case.

Regarding `C[C@@H]1[C@H](O)[C@@H](C)/C=C/C=C/C=C/C=C/C=C/C=C/C=C/[C@H](O[C@@H]2O[C@H](C)[C@@H](O)[C@H](N)[C@@H]2O)C[C@@H]2O[C@](O)(C[C@@H](O)C[C@@H](O)[C@H](O)CC[C@@H](O)C[C@@H](O)CC(=O)O[C@H]1C)C[C@H](O)[C@H]2C(=O)O` [amph B, amphotericin B, reference compound], the minimum inhibitory concentration (MIC) with Candida albicans 10231 was determined as 2 µg/mL (≈ 2.16 µM); against Candida albicans 90028, 1 µg/mL (≈ 1.08 µM); in [8], 2 µg/mL (≈ 2.16 µM); with Candida glabrata 15126, 2 µg/mL (≈ 2.16 µM).

Take `O=C1CCC(N2C(=O)c3ccccc3C2=O)C(=O)N1` (stereo not shown) [thalidomide, reference compound]: the half-maximal inhibitory concentration (IC50) is 360 ± 2 µM in the assay with MCF-7 cells, greater than 500 µM with MCF-10A cells and 413 ± 2 µM in the assay with MDA-MB-231 cells [10]. For the same molecule, the “DNA damage (TUNEL, green nuclear fluorescence)” value with MDA-MB-231 cells [9] is on record as “found to damage DNA”.

In general, MIC refers to the lowest concentration found to suppress growth. By IC50 is commonly meant the midpoint of a concentration-inhibition curve.
